In the CheMixHub viscosity set:

Assay: xn = mol fraction of the nth substance listed

O=[N+]([O-])c1ccccc1 + CCCC(C)O
viscosity [mPa·s], 100 kPa
Conditions | x1 = 0.081 | x1 = 0.1601 | x1 = 0.24 | x1 = 0.35 | x1 = 0.4401 | x1 = 0.56 | x1 = 0.6503 | x1 = 0.7402 | x1 = 0.8504 | x1 = 0.9404
293.15 K | 3.323 | 2.827 | 2.444 | 2.095 | 1.931 | 1.863 | 1.867 | 1.914 | 1.999 | 2.054
298.15 K | 2.753 | 2.364 | 2.068 | 1.809 | 1.697 | 1.67 | 1.684 | 1.738 | 1.821 | 1.878
303.15 K | 2.317 | 2.016 | 1.794 | 1.598 | 1.517 | 1.503 | 1.523 | 1.579 | 1.66 | 1.718
308.15 K | 1.993 | 1.776 | 1.608 | 1.454 | 1.385 | 1.36 | 1.377 | 1.421 | 1.497 | 1.568
313.15 K | 1.711 | 1.545 | 1.417 | 1.301 | 1.249 | 1.239 | 1.259 | 1.302 | 1.378 | 1.451
318.15 K | 1.497 | 1.375 | 1.28 | 1.188 | 1.148 | 1.135 | 1.15 | 1.188 | 1.26 | 1.338
323.15 K | 1.311 | 1.227 | 1.159 | 1.089 | 1.055 | 1.044 | 1.057 | 1.091 | 1.16 | 1.238

CCCCCCCC + CCCCCC
viscosity [mPa·s]
Conditions | x2 = 0.1072 | x2 = 0.2073 | x2 = 0.2375 | x2 = 0.3034 | x2 = 0.4038 | x2 = 0.5101 | x2 = 0.6111 | x2 = 0.7056 | x2 = 0.805 | x2 = 0.9018
294.65 K, 100 kPa | – | – | 0.432 | – | – | – | – | – | – | –
298.15 K, 101.33 kPa | 0.4782 | 0.4598 | – | 0.4414 | 0.4124 | 0.392 | 0.3697 | 0.351 | 0.3326 | 0.3172

CCCCCO + CCCCCC
viscosity [mPa·s], 101 kPa
Conditions | 298.15 K | 313.15 K
x1 = 0.0122 | 0.302 | –
x1 = 0.0218 | 0.305 | –
x1 = 0.0272 | 0.307 | –
x1 = 0.0424 | 0.312 | –
x1 = 0.0642 | 0.321 | –
x1 = 0.0706 | 0.324 | –
x1 = 0.0889 | 0.333 | –
x1 = 0.0978 | 0.337 | –
x1 = 0.124 | 0.35 | –
x1 = 0.1377 | 0.357 | –
x1 = 0.1474 | 0.362 | –
x1 = 0.1677 | 0.371 | 0.318
x1 = 0.1838 | 0.382 | –
x1 = 0.1966 | 0.39 | –
x1 = 0.2033 | 0.395 | –
x1 = 0.2353 | 0.423 | 0.356
x1 = 0.3342 | 0.518 | 0.427
x1 = 0.4494 | 0.677 | 0.545
x1 = 0.5434 | 0.874 | 0.668
x1 = 0.6407 | 1.19 | 0.893
x1 = 0.7344 | 1.555 | 1.134
x1 = 0.8437 | 2.164 | 1.5
x1 = 0.9129 | 2.715 | 1.843

O=[N+]([O-])c1ccccc1 + CCCCCC
Conditions | viscosity [mPa·s]
293.17 K, 101.32 kPa, x1 = 0.183 | 0.408
293.27 K, 101.32 kPa, x1 = 0.453 | 0.761
293.65 K, 101.32 kPa, x1 = 0.419 | 0.697
293.66 K, 101.32 kPa, x1 = 0.732 | 1.09
293.77 K, 101.32 kPa, x1 = 0.287 | 0.552
293.77 K, 101.32 kPa, x1 = 0.36 | 0.552
294.1 K, 101.32 kPa, x1 = 0.559 | 0.799
294.57 K, 101.32 kPa, x1 = 0.183 | 0.4
294.75 K, 101.32 kPa, x1 = 0.419 | 0.651
294.75 K, 101.32 kPa, x1 = 0.629 | 0.881
294.85 K, 101.32 kPa, x1 = 0.453 | 0.692
295.17 K, 101.32 kPa, x1 = 0.287 | 0.54
295.17 K, 101.32 kPa, x1 = 0.36 | 0.54
295.88 K, 101.32 kPa, x1 = 0.732 | 1.05
296.05 K, 101.32 kPa, x1 = 0.559 | 0.775
296.3 K, 101.32 kPa, x1 = 0.183 | 0.395
296.4 K, 101.32 kPa, x1 = 0.453 | 0.665
296.45 K, 101.32 kPa, x1 = 0.629 | 0.861
296.57 K, 101.32 kPa, x1 = 0.287 | 0.529
296.57 K, 101.32 kPa, x1 = 0.36 | 0.529
296.85 K, 101.32 kPa, x1 = 0.419 | 0.621
297.45 K, 101.32 kPa, x1 = 0.732 | 1.03
298.07 K, 101.32 kPa, x1 = 0.559 | 0.747
298.15 K, 101.32 kPa, x1 = 0.36 | 0.516
298.25 K, 101.32 kPa, x1 = 0.287 | 0.516
298.25 K, 101.32 kPa, x1 = 0.629 | 0.836
298.35 K, 101.32 kPa, x1 = 0.419 | 0.605
298.55 K, 101.32 kPa, x1 = 0.453 | 0.645
303.15 K, 101 kPa, x2 = 0.072 | 1.319
303.15 K, 101 kPa, x2 = 0.148 | 1.016
303.15 K, 101 kPa, x2 = 0.246 | 0.8236
303.15 K, 101 kPa, x2 = 0.318 | 0.6679
303.15 K, 101 kPa, x2 = 0.391 | 0.5916
303.15 K, 101 kPa, x2 = 0.51 | 0.4845
303.15 K, 101 kPa, x2 = 0.618 | 0.4107
303.15 K, 101 kPa, x2 = 0.735 | 0.3659
303.15 K, 101 kPa, x2 = 0.862 | 0.3216

c1ccccc1 + CCCCCC
Conditions | viscosity [mPa·s]
293.15 K, 101.33 kPa, x1 = 0.1713 | 0.327
293.15 K, 101.33 kPa, x1 = 0.3148 | 0.345
293.15 K, 101.33 kPa, x1 = 0.4632 | 0.371
293.15 K, 101.33 kPa, x1 = 0.5799 | 0.406
293.15 K, 101.33 kPa, x1 = 0.7266 | 0.454
293.15 K, 101.33 kPa, x1 = 0.8082 | 0.494
293.15 K, 101.33 kPa, x1 = 0.9173 | 0.57
298 K, 101.33 kPa, x1 = 0.1026 | 0.3104
298 K, 101.33 kPa, x1 = 0.2013 | 0.3191
298 K, 101.33 kPa, x1 = 0.2817 | 0.3276
298 K, 101.33 kPa, x1 = 0.4385 | 0.3516
298 K, 101.33 kPa, x1 = 0.5967 | 0.3871
298 K, 101.33 kPa, x1 = 0.7149 | 0.4256
298 K, 101.33 kPa, x1 = 0.794 | 0.46
298 K, 101.33 kPa, x1 = 0.8993 | 0.5212
298.1 K, 101 kPa, x2 = 0.2 | 0.469
298.1 K, 101 kPa, x2 = 0.4 | 0.4
298.1 K, 101 kPa, x2 = 0.5 | 0.377
298.1 K, 101 kPa, x2 = 0.6 | 0.359
298.1 K, 101 kPa, x2 = 0.8 | 0.334
298.15 K, 101 kPa, x2 = 0.07 | 0.556
298.15 K, 101 kPa, x2 = 0.182 | 0.5
298.15 K, 101 kPa, x2 = 0.265 | 0.489
298.15 K, 101 kPa, x2 = 0.405 | 0.429
298.15 K, 101 kPa, x2 = 0.563 | 0.4
298.15 K, 101.33 kPa, x1 = 0.0651 | 0.2983
298.15 K, 101.33 kPa, x1 = 0.1218 | 0.3034
298.15 K, 101.33 kPa, x1 = 0.1281 | 0.3134
298.15 K, 101.33 kPa, x1 = 0.2665 | 0.327
298.15 K, 101.33 kPa, x1 = 0.2763 | 0.3184
298.15 K, 101.33 kPa, x1 = 0.405 | 0.3471
298.15 K, 101.33 kPa, x1 = 0.4144 | 0.339
298.15 K, 101.33 kPa, x1 = 0.5704 | 0.3822
298.15 K, 101.33 kPa, x1 = 0.5822 | 0.3759
298.15 K, 101.33 kPa, x1 = 0.7092 | 0.4165
298.15 K, 101.33 kPa, x1 = 0.7216 | 0.4254
298.15 K, 101.33 kPa, x1 = 0.821 | 0.4673
298.15 K, 101.33 kPa, x1 = 0.8811 | 0.5139
298.15 K, 101.33 kPa, x1 = 0.9055 | 0.5208
298.15 K, 101.33 kPa, x2 = 0.0488 | 0.55
298.15 K, 101.33 kPa, x2 = 0.05393 | 0.5662
298.15 K, 101.33 kPa, x2 = 0.1122 | 0.5225
298.15 K, 101.33 kPa, x2 = 0.1676 | 0.466
298.15 K, 101.33 kPa, x2 = 0.2079 | 0.472
298.15 K, 101.33 kPa, x2 = 0.2486 | 0.434
298.15 K, 101.33 kPa, x2 = 0.3095 | 0.4294
298.15 K, 101.33 kPa, x2 = 0.3321 | 0.397
298.15 K, 101.33 kPa, x2 = 0.3638 | 0.386
298.15 K, 101.33 kPa, x2 = 0.4168 | 0.373
298.15 K, 101.33 kPa, x2 = 0.4197 | 0.3921
298.15 K, 101.33 kPa, x2 = 0.4682 | 0.358
298.15 K, 101.33 kPa, x2 = 0.5004 | 0.3712
298.15 K, 101.33 kPa, x2 = 0.5206 | 0.347
298.15 K, 101.33 kPa, x2 = 0.5934 | 0.3533
298.15 K, 101.33 kPa, x2 = 0.626 | 0.328
298.15 K, 101.33 kPa, x2 = 0.6857 | 0.3394
298.15 K, 101.33 kPa, x2 = 0.7434 | 0.312
298.15 K, 101.33 kPa, x2 = 0.7913 | 0.3268
298.15 K, 101.33 kPa, x2 = 0.8753 | 0.299
298.15 K, 101.33 kPa, x2 = 0.8834 | 0.3202
298.15 K, 101.33 kPa, x2 = 0.9498 | 0.294
308.15 K, 101 kPa, x2 = 0.07 | 0.486
308.15 K, 101 kPa, x2 = 0.182 | 0.441
308.15 K, 101 kPa, x2 = 0.265 | 0.415
308.15 K, 101 kPa, x2 = 0.405 | 0.384
308.15 K, 101 kPa, x2 = 0.563 | 0.361
323.15 K, 101 kPa, x2 = 0.07 | 0.407
323.15 K, 101 kPa, x2 = 0.182 | 0.374
323.15 K, 101 kPa, x2 = 0.265 | 0.356
323.15 K, 101 kPa, x2 = 0.405 | 0.334
323.15 K, 101 kPa, x2 = 0.563 | 0.32
